Experimental data as given in the supplement of paper PMC6045584.
± gives the standard deviation of the averaged measurements.

Compound: CCCS(=O)(=O)Nc1ccc(F)c(C(=O)c2c[nH]c3ncc(Cl)cc23)c1F [PLX-4720]
Assay: surviving fraction relative to DMSO-only wells; higher = less growth inhibition
Details: 50 nM; exposure time: 5 days
How it was run: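 After seeding at 250–500 cells per well in 384-well plates and a 24-hour wait, log-phase tumour cell lines were exposed without interruption for five days to inhibitors at 0.5, 1, 5, 10, 50, 100, 500 and 1000 nM. CellTiter-Glo luminescence was recorded after 10 minutes at room temperature. Viability is reported as surviving fraction, the luminescence normalised to the median of DMSO-only wells.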

Row | Test System | surviving fraction
1 | 22RV1 PROSTATE | 0.936 ± 0.04
2 | 93VU HEADNECK | 1.08 ± 0.011
3 | 143B BONE | 0.959 ± 0.061
4 | A549 LUNG | 0.942 ± 0.012
5 | ASKA SYNOVIAL | 0.635 ± 0.032
6 | BT20 BREAST | 1.07 ± 0.1
7 | BT549 BREAST | 1.09 ± 0.036
8 | CADOES1 SOFT TISSUE | 0.999 ± 0.14
9 | CAL51 BREAST | 0.992 ± 0.027
10 | CAL120 BREAST | 0.896 ± 0.022
11 | CASKI CERVIX | 0.97 ± 0.02
12 | CHLA90 AUTONOMIC GANGLIA | 0.371 ± 0.013
13 | CME SYNOVIAL | 0.217 ± 0.021
14 | COLO320DM LARGE INTESTINE | 0.462 ± 0.075
15 | DU4475 BREAST | 0.597 ± 0.19
16 | H23 LUNG | 0.971 ± 0.028
17 | HCC38 BREAST | 1.03 ± 0.11
18 | HCC70 BREAST | 1.03 ± 0.068
19 | HCC78 LUNG | 0.761 ± 0.13
20 | HCC202 BREAST | 1.2 ± 0.11
21 | HCC1806 BREAST | 0.858 ± 0.09

Row | Test System | surviving fraction
22 | HCC1954 BREAST | 0.55 ± 0.029
23 | HCT15 LARGE INTESTINE | 0.513 ± 0.025
24 | HELA CERVIX | 1 ± 0.046
25 | HMLE3 BREAST | 0.556 ± 0.041
26 | HMT3552 BREAST | 1.23
27 | HOS BONE | 0.992 ± 0.015
28 | HOSMNG BONE | 0.991 ± 0.16
29 | HS57T BREAST | 0.921 ± 0.059
30 | HS578T BREAST | 0.978 ± 0.13
31 | HSSYII SYNOVIAL | 0.385 ± 0.0033
32 | HT1080 SOFT TISSUE | 1.01 ± 0.038
33 | HU09 BONE | 1.01 ± 0.07
34 | JIMT1 BREAST | 0.966 ± 0.067
35 | JURKAT HAEMATOPOIETIC AND LYMPHOID TISSUE | 0.981 ± 0.026
36 | KPD BONE | 1.01 ± 0.075
37 | LM7 BONE | 0.884 ± 0.066
38 | MCF7 BREAST | 0.83 ± 0.014
39 | MDAMB134 BREAST | 0.754 ± 0.09
40 | MDAMB157 BREAST | 0.914 ± 0.094
41 | MDAMB231 BREAST | 1.01 ± 0.031

Same assay, conditions: 100 nM; exposure time: 5 days

Row | Test System | surviving fraction
42 | 22RV1 PROSTATE | 0.929 ± 0.053
43 | 93VU HEADNECK | 1.07 ± 0.081
44 | 143B BONE | 0.986 ± 0.0071
45 | A549 LUNG | 0.98 ± 0.018
46 | ASKA SYNOVIAL | 1.21 ± 0.033
47 | BT20 BREAST | 1.03 ± 0.19
48 | BT549 BREAST | 1.29 ± 0.061
49 | CADOES1 SOFT TISSUE | 0.869 ± 0.034
50 | CAL51 BREAST | 1.02 ± 0.029
51 | CAL120 BREAST | 0.946 ± 0.023
52 | CASKI CERVIX | 1.02 ± 0.033
53 | CHLA90 AUTONOMIC GANGLIA | 0.94 ± 0.018
54 | CME SYNOVIAL | 1.24 ± 0.14
55 | COLO320DM LARGE INTESTINE | 1.07 ± 0.086
56 | DU4475 BREAST | 0.603 ± 0.17
57 | H23 LUNG | 1.06 ± 0.018
58 | HCC38 BREAST | 1.05 ± 0.28
59 | HCC70 BREAST | 1.03 ± 0.091
60 | HCC78 LUNG | 1.01 ± 0.077
61 | HCC202 BREAST | 1.46 ± 0.26
62 | HCC1806 BREAST | 1.02 ± 0.052

Row | Test System | surviving fraction
63 | HCC1954 BREAST | 0.476 ± 0.027
64 | HCT15 LARGE INTESTINE | 0.926 ± 0.046
65 | HELA CERVIX | 1.01 ± 0.025
66 | HMLE3 BREAST | 1.03 ± 0.031
67 | HMT3552 BREAST | 1.17
68 | HOS BONE | 0.995 ± 0.0027
69 | HOSMNG BONE | 1.04 ± 0.079
70 | HS57T BREAST | 0.982 ± 0.03
71 | HS578T BREAST | 0.92 ± 0.055
72 | HSSYII SYNOVIAL | 0.9 ± 0.026
73 | HT1080 SOFT TISSUE | 0.979 ± 0.031
74 | HU09 BONE | 0.946 ± 0.14
75 | JIMT1 BREAST | 1.01 ± 0.06
76 | JURKAT HAEMATOPOIETIC AND LYMPHOID TISSUE | 0.996 ± 0.059
77 | KPD BONE | 0.988 ± 0.075
78 | LM7 BONE | 0.948 ± 0.069
79 | MCF7 BREAST | 0.915 ± 0.022
80 | MDAMB134 BREAST | 0.9355 ± 0.0021
81 | MDAMB157 BREAST | 1.01 ± 0.027
82 | MDAMB231 BREAST | 1.03 ± 0.012

Same assay, conditions: 500 nM; exposure time: 5 days

Row | Test System | surviving fraction
83 | 22RV1 PROSTATE | 0.825 ± 0.095
84 | 93VU HEADNECK | 0.998 ± 0.092
85 | 143B BONE | 0.855 ± 0.13
86 | A549 LUNG | 0.975 ± 0.027
87 | ASKA SYNOVIAL | 1.02 ± 0.077
88 | BT20 BREAST | 1.05 ± 0.087
89 | BT549 BREAST | 1.19 ± 0.03
90 | CADOES1 SOFT TISSUE | 0.939 ± 0.075
91 | CAL51 BREAST | 1.04 ± 0.052
92 | CAL120 BREAST | 0.889 ± 0.071
93 | CASKI CERVIX | 0.998 ± 0.045
94 | CHLA90 AUTONOMIC GANGLIA | 0.98 ± 0.049
95 | CME SYNOVIAL | 1.02 ± 0.14
96 | COLO320DM LARGE INTESTINE | 1.03 ± 0.088
97 | DU4475 BREAST | 0.0833 ± 0.03
98 | H23 LUNG | 1.06 ± 0.044
99 | HCC38 BREAST | 1.12 ± 0.1
100 | HCC70 BREAST | 1.03 ± 0.12
101 | HCC78 LUNG | 0.869 ± 0.04
102 | HCC202 BREAST | 1.12 ± 0.28
103 | HCC1806 BREAST | 0.855 ± 0.13

Row | Test System | surviving fraction
104 | HCC1954 BREAST | 0.466 ± 0.072
105 | HCT15 LARGE INTESTINE | 0.886 ± 0.077
106 | HELA CERVIX | 1 ± 0.055
107 | HMLE3 BREAST | 1.14 ± 0.036
108 | HMT3552 BREAST | 1.11
109 | HOS BONE | 0.96 ± 0.0078
110 | HOSMNG BONE | 1 ± 0.12
111 | HS57T BREAST | 0.92 ± 0.019
112 | HS578T BREAST | 0.943 ± 0.058
113 | HSSYII SYNOVIAL | 0.827 ± 0.016
114 | HT1080 SOFT TISSUE | 0.934 ± 0.042
115 | HU09 BONE | 0.898 ± 0.11
116 | JIMT1 BREAST | 0.947 ± 0.066
117 | JURKAT HAEMATOPOIETIC AND LYMPHOID TISSUE | 1.03 ± 0.02
118 | KPD BONE | 0.932 ± 0.085
119 | LM7 BONE | 0.871 ± 0.028
120 | MCF7 BREAST | 0.851 ± 0.021
121 | MDAMB134 BREAST | 0.726 ± 0.076
122 | MDAMB157 BREAST | 0.868 ± 0.082
123 | MDAMB231 BREAST | 1.01 ± 0.011

Same assay, conditions: 1000 nM; exposure time: 5 days

Row | Test System | surviving fraction
124 | 22RV1 PROSTATE | 0.872 ± 0.049
125 | 93VU HEADNECK | 1.02 ± 0.054
126 | 143B BONE | 0.996 ± 0.028
127 | A549 LUNG | 1.02 ± 0.047
128 | ASKA SYNOVIAL | 1.08 ± 0.045
129 | BT20 BREAST | 1.12 ± 0.067
130 | BT549 BREAST | 1.05 ± 0.15
131 | CADOES1 SOFT TISSUE | 1 ± 0.049
132 | CAL51 BREAST | 1.05 ± 0.04
133 | CAL120 BREAST | 0.911 ± 0.013
134 | CASKI CERVIX | 1.02 ± 0.058
135 | CHLA90 AUTONOMIC GANGLIA | 1.07 ± 0.061
136 | CME SYNOVIAL | 1.12 ± 0.044
137 | COLO320DM LARGE INTESTINE | 0.979 ± 0.079
138 | DU4475 BREAST | 0.0277 ± 0.0075
139 | H23 LUNG | 1.17 ± 0.014
140 | HCC38 BREAST | 1.03 ± 0.28
141 | HCC70 BREAST | 0.963 ± 0.082
142 | HCC78 LUNG | 0.951 ± 0.12
143 | HCC202 BREAST | 1.06 ± 0.33
144 | HCC1806 BREAST | 0.871 ± 0.076

Row | Test System | surviving fraction
145 | HCC1954 BREAST | 0.403 ± 0.0074
146 | HCT15 LARGE INTESTINE | 1.03 ± 0.026
147 | HELA CERVIX | 1.06 ± 0.058
148 | HMLE3 BREAST | 1.15 ± 0.085
149 | HMT3552 BREAST | 1.1
150 | HOS BONE | 1.01 ± 0.019
151 | HOSMNG BONE | 1.03 ± 0.092
152 | HS57T BREAST | 0.962 ± 0.054
153 | HS578T BREAST | 0.789 ± 0.11
154 | HSSYII SYNOVIAL | 0.987 ± 0.046
155 | HT1080 SOFT TISSUE | 0.885 ± 0.033
156 | HU09 BONE | 1 ± 0.11
157 | JIMT1 BREAST | 0.976 ± 0.037
158 | JURKAT HAEMATOPOIETIC AND LYMPHOID TISSUE | 1.06 ± 0.016
159 | KPD BONE | 0.9813 ± 0.0098
160 | LM7 BONE | 0.87 ± 0.031
161 | MCF7 BREAST | 0.899 ± 0.048
162 | MDAMB134 BREAST | 0.76 ± 0.054
163 | MDAMB157 BREAST | 0.86 ± 0.039
164 | MDAMB231 BREAST | 1.03 ± 0.038
